One assay deals with T1, LOX2 (Arabidopsis thaliana, UniProt P38418).
T1 sequence (P38418 71-896): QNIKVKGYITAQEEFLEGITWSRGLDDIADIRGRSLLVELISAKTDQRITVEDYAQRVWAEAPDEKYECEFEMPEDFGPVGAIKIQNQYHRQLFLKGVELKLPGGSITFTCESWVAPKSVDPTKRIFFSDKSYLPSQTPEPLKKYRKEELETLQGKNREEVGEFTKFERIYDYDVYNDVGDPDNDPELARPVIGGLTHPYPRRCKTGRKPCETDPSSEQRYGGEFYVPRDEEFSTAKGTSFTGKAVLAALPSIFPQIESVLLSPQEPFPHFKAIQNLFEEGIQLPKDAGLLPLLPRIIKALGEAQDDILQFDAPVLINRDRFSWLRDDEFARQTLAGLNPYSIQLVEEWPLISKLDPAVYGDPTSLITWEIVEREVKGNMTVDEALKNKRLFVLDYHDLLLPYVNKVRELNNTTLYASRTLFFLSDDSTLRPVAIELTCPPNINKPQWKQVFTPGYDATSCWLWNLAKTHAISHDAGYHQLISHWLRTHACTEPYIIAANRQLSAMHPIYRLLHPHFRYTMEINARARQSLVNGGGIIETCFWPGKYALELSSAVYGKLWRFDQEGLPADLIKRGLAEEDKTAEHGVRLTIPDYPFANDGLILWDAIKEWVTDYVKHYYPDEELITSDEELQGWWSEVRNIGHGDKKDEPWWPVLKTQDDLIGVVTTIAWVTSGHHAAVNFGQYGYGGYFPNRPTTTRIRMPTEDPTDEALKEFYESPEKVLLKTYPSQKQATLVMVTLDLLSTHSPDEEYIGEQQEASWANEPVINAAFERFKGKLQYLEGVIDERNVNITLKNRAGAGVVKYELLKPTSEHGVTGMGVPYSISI
As to the kind of experiment: Intrinsic fluorescence of LOX2. In kind it is binding. The arrangement: made in house; host or cells: E. coli Nico21(DE3), pET15b. To be noted: as Figure 5B; for Emission maximum: control 336.5±0.6, in nm (unit assumed); for Relative fluorescence intensity at emission maximum: λExc = 280 nm, control 125.5±2.0. The protocol: (§1) Figure 5 Analysis of the interaction of 12-OPDA and MJ with LOX4. […] LOX4 (0.22 µg/µL) was incubated with compounds at indicated concentrations for 10 min at 30 °C, and residual LOX activity was measured spectrophotometrically by the injection of 3 µL incubation mixture into 123 µL LeA (4.8 µM in 50 mM Tris-HCl, pH 7.2). […] (B) Intrinsic fluorescence of LOX4 incubated with 12-OPDA, MJ and solvent (control). Here, 120 µL LOX4 (0.2 µg/µL) was mixed with 15 µL chemical (1.4 mM in 50 mM K-Pi, pH 8.0) or solvent (control) and analyzed for intrinsic fluorescence emission after excitation at λExc = 280 nm. Mean graphs are shown (n = 4).
(§2) Int. J. Mol. Sci. 2021, 22, x FOR PEER REVIEW 11 of 17
(§3) Figure S7. Interaction and activity studies of LOX2, LOX3 and LOX6. (A) LOX2, LOX3 and LOX6 activities in presence of increasing amounts of MJ and 12-OPDA. Analysis was performed as described for IC50 determination of LOX4 (see Figure 5A). 100% activity […]
(§4) (B) Intrinsic fluorescence of LOX2 and LOX3 incubated with 12-OPDA, MJ and solvent control. Analysis was performed as in Figure 5B. […]

The target of the next assay is T2, LOX3 (Arabidopsis thaliana, UniProt Q9LNR3).
T2 sequence (Q9LNR3 71-919): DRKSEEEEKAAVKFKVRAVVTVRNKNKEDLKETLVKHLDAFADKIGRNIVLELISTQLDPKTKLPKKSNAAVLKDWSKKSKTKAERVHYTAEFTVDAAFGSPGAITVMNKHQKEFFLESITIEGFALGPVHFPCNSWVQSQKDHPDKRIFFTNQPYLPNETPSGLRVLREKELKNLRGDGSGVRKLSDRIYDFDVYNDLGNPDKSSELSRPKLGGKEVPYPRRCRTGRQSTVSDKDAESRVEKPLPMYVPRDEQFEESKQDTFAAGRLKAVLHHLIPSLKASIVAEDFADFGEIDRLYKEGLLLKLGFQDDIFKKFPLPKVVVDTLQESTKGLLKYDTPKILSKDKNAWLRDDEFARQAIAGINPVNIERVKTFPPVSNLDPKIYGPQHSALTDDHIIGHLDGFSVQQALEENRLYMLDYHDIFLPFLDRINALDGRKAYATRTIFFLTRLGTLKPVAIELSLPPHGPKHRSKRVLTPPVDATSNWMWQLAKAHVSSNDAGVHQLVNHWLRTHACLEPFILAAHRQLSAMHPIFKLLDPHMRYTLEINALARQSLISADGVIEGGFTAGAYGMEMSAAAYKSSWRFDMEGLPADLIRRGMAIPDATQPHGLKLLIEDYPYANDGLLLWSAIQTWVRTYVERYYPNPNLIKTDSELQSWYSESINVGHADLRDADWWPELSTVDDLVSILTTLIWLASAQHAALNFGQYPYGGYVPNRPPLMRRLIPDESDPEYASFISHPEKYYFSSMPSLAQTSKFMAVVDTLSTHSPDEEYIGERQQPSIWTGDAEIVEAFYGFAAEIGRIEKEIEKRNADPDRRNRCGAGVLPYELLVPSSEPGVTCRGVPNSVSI
As to the kind of experiment: Intrinsic fluorescence of LOX3. To be noted: as Figure 5B; for Emission maximum: control 330.8±1.6, in nm (unit assumed); for Relative fluorescence intensity at emission maximum: λExc = 280 nm, control 134.5±3.9. In kind it is binding. The arrangement: made in house; host or cells: E. coli Nico21(DE3), pET15b. The protocol:
as §1, §2, §3, §4

Each structure is given as a SMILES string.

For `CCC=CCC1C(=O)C=CC1CCCCCCCC(=O)O` (stereo not drawn) [12-OPDA, cis-(+)-12-oxophytodienoic acid], the Emission maximum at LOX2 is given as 337.2±0.3; at LOX3, 333.2±0.3. The “Relative fluorescence intensity at emission maximum” value (“Relative fluorescence intensity” below) is on record as 117.5±2.0 on LOX2 and 115.2±1.3 on LOX3.

`CC/C=C\CC1C(=O)CCC1CC(=O)OC` (centres unmarked) [MJ, methyl jasmonate]: on LOX2, the Emission maximum came out at 337.3±0.6 and the “Relative fluorescence intensity” value is 119.7±2.7. Also, at LOX3, the Emission maximum turned out to be 331.7±0.8 and the “Relative fluorescence intensity” value is 126.4±3.0.

These data come from publication PMC8508710, “Biochemical Characterization of 13-Lipoxygenases of Arabidopsis thaliana” (International Journal of Molecular Sciences, 2021).
